Where a SMILES comes first, the peptide text is derived from it.
How the values were obtained:
[1] = tested on: S. aureus (ATCC 25923) infected diabetic wound; assay: Diabetic mouse S. aureus-infected full-thickness skin wound model; conditions: for wound healing rate: 7th day, 20 μg/mL in PBS, 200 μL subcutaneously for 3 days, n = 4
Protocol: BALB/c male mice are from the Experimental Animal Center of Air Force Military Medical University. One group was fed a normal diet, and the other five groups were fed a high-fat diet for 4 weeks and then injected with 35 mg/kg streptozotocin (STZ, 35 mg/kg, Sigma) intraperitoneally for 3 days. […] After intraperitoneal injection of pentobarbital sodium (1%, […]), the dorsal hair of each animal was shaved off, and a circular full-thickness skin wound was created on the back using a 10-mm sterile mouse punch. S. aureus (ATCC 25923) was used to infect the wound site of mice, and a full-thickness wound infection model of mice was established. S. aureus was first resuscitated by operation in a biological ultra-clean table. A single colony was picked and incubated in LB medium at 37°C and 200 rpm. The concentration of the above S. aureus solution was adjusted to 1 × 10^8 CFU/mL to infect the wound of mice. Then, 24 h after S. aureus infection, three drugs, DM (20 μg/mL), ANG1-7 (20 μg/mL), and MYR-DM-ANG1-7 (20 μg/mL), were dissolved in PBS buffer, and 200 μL was injected subcutaneously for 3 days. After drug injection, the wound pus was diluted and coated with plate culture to observe the colony situation. The gross specimen imaging system (GF-7A, China) was used to record the wounds of mice on the same day and every other day after the formation of the wounds. The rubber ring with adhesive backing was used to fix the wound and prevent it from shrinking. ImageJ analysis software (NIH, Bethesda, MD, United States) was used to calculate and analyze the wound area. After 0, 3, 7, 10, and 14 days, the size of the infected wound was evaluated by rubber ring. The wound closure was measured as follows: the wound healing rate (%) = [W0 − Wn]/W0 × 100%, where W0 and Wn represent the wound area on the 0th and nth days, respectively (n = 4).
On the 14th day, the skin tissue was fixed in 4% paraformaldehyde solution, dehydrated, embedded in paraffin, sliced, and stained with hematoxylin–eosin (HE) and Masson. Skin tissue sections on Day 7 were immunofluorescently stained using rabbit anti-mouse CD31 (Cell Signaling Technology) and α-SMA (Cell Signaling Technology), and all stained sections were observed under the slide scanner (Aperio AT 2; Leica Biosystems, Germany).

HUVECs [2] = assay: MDA, thiobarbituric acid method; type: cell-based, human; conditions: HUVEC supernatant, HG + LPS (HG + LPS increased by 1.65 times); n = 3
Protocol: The level of MDA was determined by the thiobarbituric acid (TBA) method. Briefly, 100 μL of cell supernatant was mixed with 200 μL of a 10% trichloroacetic acid solution of 0.67% TBA. The mixture was incubated at 95°C for 30 min, cooled on ice, and centrifuged at 12,000 × g at 4°C for 10 min. The absorbance of the supernatant was measured at 532 nm using an enzyme-labeled instrument. The experiments were repeated three times.

HUVECs [3] = assay: NO secretion, Griess reaction; type: cell-based, human; conditions: HG + LPS (HG + LPS 0.5 times the original level), n = 3
Protocol: NO levels were determined using the Griess reaction. Briefly, 100 μL of cell culture supernatant was mixed with an equal volume of Griess reagent and incubated at room temperature in the dark for 30 min. The absorbance of the reaction mixture was measured at 540 nm using a microplate reader. Sodium nitrite (NaNO2) was used as a standard to generate a calibration curve, and the NO concentration in the samples was calculated accordingly. All experiments were independently performed in triplicate to ensure data reliability and reproducibility.

HUVECs [4] = assay: Scratch wound healing assay; type: cell-based, human; conditions: HG + LPS, 20 μg/mL, n = 3; for wound healing rate (scratch assay): after 12 h; for healing area (scratch assay): at 48 h
Protocol: In a 6-well plate, HUVECs (2 × 10^5 cells/well) were seeded. The cells were starved in serum-free medium for 12 h, and then, a scratch was made vertically using a 200-μL pipette tip. […]

HUVECs [5] = assay: Tube formation (angiogenesis) on Matrigel; type: cell-based, human; conditions: 9 h, n = 3
Protocol: The formation of vascular structure was observed by matrix glue experiment, and the angiogenesis ability was evaluated in Matrigel stent (Corning, New York). After treatment in each group, 300 μL (2 × 10^5 cells/mL) HUVECs were digested and inoculated into a 24-well plate containing Matrigel scaffold. After 9 h, the formation image of the tube was photographed.

[6] = tested on: PI3K/AKT/eNOS signaling pathway, MasR in HUVECs; assay: Western blot of PI3K/AKT/eNOS signaling pathway and MasR; type: cell-based, human; conditions: inhibitor group
Protocol: After the specified treatments, HUVECs were harvested using a cell scraper and lysed in cell lysis buffer (Wuhan Boster Biological Engineering Co., Ltd.) for 30 min at 4°C. Total protein was quantified using a BCA protein assay kit. Lysate (20 μg) from each sample was separated by 10% sodium dodecyl sulfate–polyacrylamide gel electrophoresis (SDS-PAGE) and then transferred to a polyvinylidene fluoride (PVDF) membrane. The membrane was blocked with a fresh blocking buffer containing 5% skim milk in Tris-buffered saline with 0.1% Tween 20 (TBS-T) for 2 h at room temperature and then incubated with primary antibodies against AKT (1:1000 dilution, #4691, Cell Signaling Technology), p-AKT (1:2000 dilution, #4060, Cell Signaling Technology), PI3K (1:1000 dilution, ab191606, Abcam), p-PI3K (1:1000 dilution, ab278545, Abcam), eNOS (1:1000 dilution, #32027, Cell Signaling Technology), p-eNOS (1:1000 dilution, ab215717, Abcam), and Mas (1:1000 dilution, #85003-1-RR, Proteintech) overnight at 4°C with shaking. The membrane was washed with TBS-T for 15 min and then incubated with horseradish peroxidase (HRP)–conjugated goat anti-rabbit secondary antibody (Wuhan Sanying Biotechnology Co., Ltd.) at a 1:2000 dilution in TBS-T and 3% skim milk for 90 min at room temperature. The membrane was washed three times with TBS-T, each for 15 min, and the immune reaction signals were detected using an ECL detection method. Protein bands were detected using a chemiluminescent gel imaging system (Bio-Rad Lab, China). Protein expression was quantitatively analyzed using ImageJ software (National Institutes of Health, Bethesda, MD, United States), and the experiment was repeated three times.

Molecule	wound healing rate [1]	fluorescence intensity of α-SMA ([1]; seventh day, vs the diabetes infection group, p < 0.01)	secretion of MDA, increased by (HUVECs [2])	NO secretion in cell supernatant, increases to (HUVECs [3])	wound healing rate (scratch assay) (HUVECs [4])	healing area (scratch assay) (HUVECs [4])	length of formed blood vessels (HUVECs [5]; HG + LPS (HG + LPS group 0.4 times))	increase in p-PI3K, p-AKT, and p-eNOS levels [6]	secretion of MDA, decreased by (HUVECs [2])	main connections of formed blood vessels (HUVECs [5]; HG + LPS (HG + LPS group 0.3 times))
CC[C@H](C)[C@H](NC(=O)[C@H](CC(C)C)NC(=O)[C@@H](NC(=O)[C@H](Cc1ccc(O)cc1)NC(=O)CNC(=O)CNC(=O)[C@H](CCCNC(=N)N)NC(=O)[C@H](CC(C)C)NC(=O)[C@H](CCCCN)NC(=O)[C@H](CC(C)C)NC(=O)[C@H](CCCCN)NC(=O)[C@H](CS)NC(=O)[C@H](CC(C)C)NC(=O)[C@H](Cc1c[nH]c2ccccc12)NC(=O)CNC(=O)[C@H](CCCCN)NC(=O)[C@H](CS)NC(=O)[C@@H]1CCCN1C(=O)[C@H](CCCCN)NC(=O)[C@H](CCCNC(=N)N)NC(=O)[C@H](CCCNC(=N)N)NC(=O)[C@H](CO)NC(=O)[C@@H](N)CO)[C@@H](C)O)C(=O)NCC(=O)N[C@@H](CO)C(=O)N[C@@H](C)C(=O)N[C@H](C(=O)N[C@@H](CC(N)=O)C(=O)N[C@@H](CC(C)C)C(=O)N[C@@H](CC(N)=O)C(=O)N[C@@H](CCCNC(=N)N)C(=O)N1CCC[C@H]1C(=O)N[C@H](C(=O)N[C@@H](Cc1ccc(O)cc1)C(=O)N[C@H](C(=O)N[C@@H](CCCNC(=N)N)C(=O)N[C@@H](C)C(=O)O)C(C)C)[C@@H](C)O)[C@@H](C)O [DM, cathelicidin-DM] (H-SSRRKPCKGWLCKLKLRGGYTLIGSATNLNRPTYVRA-OH; N-terminus and C-terminus assumed)	69.86%	significantly higher	1.2 times	1.2 times	25.2%	52.6%	1.3 times			
O=c1cc(N2CCOCC2)oc2c(-c3ccccc3)cccc12 [LY294002, reference compound]								significantly inhibited		
DRVYIH [ANG1-7, angiotensin 1-7]	40.69%			1.65 times	44.7%	72.06%			0.56 times	1.4 times
